The source of these data is patent US6875578B2, “System for cell-based screening” (priority 1997, dated 2005).

The subject of assay [1] is mitochondrial potential in hepatocytes. As to the kind of experiment: JC-1 mitochondrial potential measurement, hepatocytes. It counts as cell-based, rat. To be noted: various concentrations, nearly complete within seconds to minutes. The text has this:
(§1) We have utilized a positively charged cyanine dye, JC-1 (Molecular Probes, Eugene, Oreg.), which diffuses into the cell and readily partitions into the mitochondrial membrane, for measurement of mitochondrial potential. The photophysics of JC-1 are such that when the probe partitions into the mitochondrial membrane and it experiences an electrical potential >140 mV, the probe aggregates and its spectral response is shifted to the red. At membrane potential values <140 mV, JC-1 is primarily monomeric and its spectral response is shifted toward the blue. Therefore, the ratio of two emission wavelengths (645 nm and 530 nm) of JC-1 partitioned into mitochondria provides a sensitive and continuous measure of mitochondrial membrane potential.
(§2) • 1. […] (2 times, 150 μl/well), the toxins were added if required, and the entire plate was scanned in a plate reader. The JC-1 monomer was measured optimally with a 485 nm excitation/530 nm emission wavelength filter set, and the aggregates were best measured with a 590 nm excitation/645 nm emission wavelength set. […]
(§3) The mitochondrial potential within several types of living cells, and the effects of toxins on the potential were measured using the fluorescence ratio Em 645 (590)/Em 530 (485) (excitation wavelengths in parentheses). For example, we measured the effect of 10 μM valinomycin on the mitochondrial potential within LLCPK cells (pig epithelia). […]

Assay [2] has as its system mitochondrial potential within LLCPK cells. As to the kind of experiment: JC-1 mitochondrial potential measurement, LLCPK cells. Type of assay: cell-based, pig. To be noted: 10 μM valinomycin, within seconds of treatment.
Source text: as §1, §2, §3

For the compound `CC(C)[C@@H]1NC(=O)[C@H](C)OC(=O)[C@@H](C(C)C)NC(=O)[C@@H](C(C)C)OC(=O)[C@H](C(C)C)NC(=O)[C@H](C)OC(=O)[C@@H](C(C)C)NC(=O)[C@@H](C(C)C)OC(=O)[C@H](C(C)C)NC(=O)[C@H](C)OC(=O)[C@@H](C(C)C)NC(=O)[C@@H](C(C)C)OC1=O` [Valinomycin], in assay [1], the “changes in mitochondrial potential” value is “sensitive to valinomycin”. The “reduction in mitochondrial potential (fluorescence ratio Em 645/Em 530 of JC-1)” value in assay [2] is listed as “approximately 50%”.
